Results as given in PubChem BioAssay AID1159561 (GlaxoSmithKline (GSK), 2015).
The source made the active and inactive calls.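 The calls were made as follows: active = toxic to mouse fibroblast host cells, with IC50 below 50 µM; inactive = the rest.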

tested on: NIH-3T3 viability, ATP luminescence; test: murine fibroblast viability via ATP level – cell-based, murine fibroblasts, cytotoxicity control for Trypanosoma cruzi inhibitor project (AID 1159561); conditions: 4 days

| Structure (SMILES) | IC50 |
| --- | --- |
| COc1ccc(CN2CCCCC2c2nc(-c3cccnc3)no2)cc1 (stereo unspecified) | > 50 µM (inactive) |
| Clc1ccc(CN2CCN(C3=NCCN3)CC2)cc1Cl | 40 µM |
| CCN(CC)S(=O)(=O)c1ccc(C(=O)Nc2cc(C)nn2-c2nc(C)c(C)c(=O)[nH]2)cc1 | > 50 µM (inactive) |
| Cn1nc([N+](=O)[O-])nc1Oc1ccc(C(=O)c2ccccc2)cc1 | > 50 µM (inactive) |
| CCn1nccc1CN(C)C(=O)C=Cc1ccc(Cl)cc1 | > 50 µM (inactive) |
| O=C(Cn1cnc([N+](=O)[O-])n1)Nc1ccc(Cl)cc1C(=O)c1ccccc1 | > 50 µM (inactive) |
| CS(=O)(=O)c1cccc(-c2cnc(N)c3c(-c4ccc(CO)cc4)csc23)c1 | 25 µM |
| Cc1cccnc1CN1CCN(CCCOc2ccc(-c3ccc(C(N)=O)cc3)cc2)CC1 | 6.3 µM |
| Cc1ccc(C)c(-n2nnnc2Sc2nc([N+](=O)[O-])nn2C)c1 | > 50 µM (inactive) |
| Cn1cncc1CN1CCC2(CC1)COC(Cc1ccccc1)C2 (stereo unspecified) | 25 µM |
| CC1(C)CCC(=Cc2ccc(Cl)cc2)CC1(O)Cn1ccnc1 (stereo unspecified) | 16 µM |
